Results reported in patent US20070031328A1, “Radiolabeled-pegylation of ligands for use as imaging agents” (priority 2005, published 2007).

Tests used:
[1] = target: T1, Ab aggregates of AD brain homogenates (Homo sapiens, UniProt P05067); assay: Inhibition of [125I]IMPY binding to Aβ aggregates of AD brain homogenates; design: species or system human (AD patients)
T1 construct: to Ab aggregates of AD brain homogenates; from tissue; host or cells: post-mortem grey matter of AD patients, homogenised in PBS
Method: Postmortem brain tissues were obtained from AD patients at autopsy, and neuropathological diagnosis was confirmed by current criteria (NIA-Reagan Institute Consensus Group, 1997). Homogenates were then prepared from dissected gray matters from AD patients in phosphate buffered saline (PBS, pH 7.4) at the concentration of approximately 100 mg wet tissue/ml (motor-driven glass homogenizer with setting of 6 for 30 sec).
(§1) Binding assays were carried out in 12×75 mm borosilicate glass tubes. […] The mixture was incubated at 37° C. for 2 hr and the bound and the free radioactivity were separated by vacuum filtration through Whatman GF/B filters using a Brandel M-24R cell harvester followed by 2×3 ml washes of PBS at room temperature. Filters containing the bound ^125I ligand were assayed for radioactivity content in a gamma counter (Packard 5000) with 70% counting efficiency.
as §1, with “efficiency. […] The results of inhibition experiments were subjected to nonlinear regression analysis using EBDA by which Ki values were calculated.” for “efficiency.”

[2] = Biodistribution studies in normal mice; assay type: in vivo, male ICR mice; conditions: tail vein injection, avg of 3 mice ± SD
Method: While under isoflurane anesthesia, 0.15 mL of a saline solution containing the F-18 tracers (10-20 uCi) was injected directly into the lateral tail vein of male ICR mice. The mice (n=3 for each time point) were sacrificed by cervical dislocation at 2, 30, 60 and 120 minutes post-injection. The organs of interest were removed, weighed and assayed for radioactivity content with an automatic gamma counter. The percentage dose per organ was calculated by a comparison of the tissue counts to suitably diluted aliquots of the injected material. Total activities of blood and bone were calculated under the assumption that they were 7% and 14% of the body weight, respectively. The % dose/g of samples was calculated by comparing the sample counts with the count of the diluted initial dose.

T1 sequence (P05067 672-713 limits assumed): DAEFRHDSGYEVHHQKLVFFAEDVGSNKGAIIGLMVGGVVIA

Compound: CN(C)c1ccc(-c2cn3cc(OCCF)ccc3n2)cc1 [Compound 12a, 6-(2-fluoroethoxy)-2-(4-dimethylamino-)phenyl-imidazo [1,2-a]pyridine]
- Ki [1]: 16 ± 2 nM

Compound: CNc1ccc(-c2nc3ccc(OCCOCCOCCOCCOCCOCCOCCOCCF)cc3s2)cc1 [Compound 5d, 2-[4′-(methylamino)phenyl]-6-[2-(2-{2-[2-(2-{2-[2-(2-fluoroethoxy)-ethoxy]ethoxy}ethoxy)ethoxy]ethoxy}ethoxy)ethoxy]benzothiazole]
- Ki [1]: 9 ± 1.8 nM

Compound: CNc1ccc(-c2nc3ccc(OCCOCCOCC[18F])cc3s2)cc1 [[^18F]5b]
- Blood biodistribution ([2]; 2 min): 6.29 ± 1.19 % dose/g
- Blood biodistribution ([2]; 30 min): 3.41 ± 0.07 % dose/g
- Blood biodistribution ([2]; 1 hr): 3.91 ± 0.23 % dose/g
- Blood biodistribution ([2]; 2 hr): 4.04 ± 0.45 % dose/g
- Bone biodistribution ([2]; 2 min): 2.13 ± 0.16 % dose/g
- Bone biodistribution ([2]; 30 min): 1.48 ± 0.03 % dose/g
- Bone biodistribution ([2]; 1 hr): 1.82 ± 0.04 % dose/g
- Bone biodistribution ([2]; 2 hr): 2.41 ± 0.28 % dose/g
- Brain biodistribution ([2]; 2 min): 5.53 ± 0.56 % dose/g
- Brain biodistribution ([2]; 30 min): 2.33 ± 0.15 % dose/g
- Brain biodistribution ([2]; 1 hr): 2.18 ± 0.09 % dose/g
- Brain biodistribution ([2]; 2 hr): 1.96 ± 0.13 % dose/g
- Heart biodistribution ([2]; 2 min): 6.26 ± 1.12 % dose/g
- Heart biodistribution ([2]; 30 min): 3.22 ± 0.33 % dose/g
- Heart biodistribution ([2]; 1 hr): 3.06 ± 0.15 % dose/g
- Heart biodistribution ([2]; 2 hr): 2.50 ± 0.09 % dose/g
- Kidney biodistribution ([2]; 2 min): 9.02 ± 0.77 % dose/g
- Kidney biodistribution ([2]; 30 min): 5.27 ± 0.77 % dose/g
- Kidney biodistribution ([2]; 1 hr): 3.97 ± 0.25 % dose/g
- Kidney biodistribution ([2]; 2 hr): 2.97 ± 0.07 % dose/g
- Liver biodistribution ([2]; 2 min): 21.84 ± 1.56 % dose/g
- Liver biodistribution ([2]; 30 min): 13.75 ± 1.88 % dose/g
- Liver biodistribution ([2]; 1 hr): 11.22 ± 0.82 % dose/g
- Liver biodistribution ([2]; 2 hr): 9.13 ± 1.11 % dose/g
- Lung biodistribution ([2]; 2 min): 7.35 ± 1.50 % dose/g
- Lung biodistribution ([2]; 30 min): 3.94 ± 0.29 % dose/g
- Lung biodistribution ([2]; 1 hr): 3.63 ± 0.25 % dose/g
- Lung biodistribution ([2]; 2 hr): 3.24 ± 0.10 % dose/g
- Muscle biodistribution ([2]; 2 min): 1.40 ± 0.11 % dose/g
- Muscle biodistribution ([2]; 30 min): 1.92 ± 0.34 % dose/g
- Muscle biodistribution ([2]; 1 hr): 1.58 ± 0.13 % dose/g
- Muscle biodistribution ([2]; 2 hr): 1.38 ± 0.11 % dose/g
- Skin biodistribution ([2]; 2 min): 2.09 ± 0.22 % dose/g
- Skin biodistribution ([2]; 30 min): 2.27 ± 0.17 % dose/g
- Skin biodistribution ([2]; 1 hr): 1.92 ± 0.13 % dose/g
- Skin biodistribution ([2]; 2 hr): 1.57 ± 0.06 % dose/g
- Spleen biodistribution ([2]; 2 min): 5.24 ± 0.67 % dose/g
- Spleen biodistribution ([2]; 30 min): 2.66 ± 0.14 % dose/g
- Spleen biodistribution ([2]; 1 hr): 2.84 ± 0.13 % dose/g
- Spleen biodistribution ([2]; 2 hr): 2.46 ± 0.05 % dose/g

Compound: CNc1ccc(-c2nc3ccc(OCCOCC[18F])cc3s2)cc1 [[^18F]5a]
- Blood biodistribution ([2]; 2 min): 3.37 ± 0.46 % dose/g
- Blood biodistribution ([2]; 30 min): 3.60 ± 0.13 % dose/g
- Blood biodistribution ([2]; 1 hr): 4.55 ± 0.40 % dose/g
- Blood biodistribution ([2]; 2 hr): 4.38 ± 0.14 % dose/g
- Bone biodistribution ([2]; 2 min): 1.69 ± 0.21 % dose/g
- Bone biodistribution ([2]; 30 min): 2.28 ± 0.20 % dose/g
- Bone biodistribution ([2]; 1 hr): 3.17 ± 0.39 % dose/g
- Bone biodistribution ([2]; 2 hr): 6.35 ± 1.32 % dose/g
- Brain biodistribution ([2]; 2 min): 10.27 ± 1.30 % dose/g
- Brain biodistribution ([2]; 30 min): 4.59 ± 0.47 % dose/g
- Brain biodistribution ([2]; 1 hr): 3.94 ± 0.04 % dose/g
- Brain biodistribution ([2]; 2 hr): 3.86 ± 0.35 % dose/g
- Heart biodistribution ([2]; 2 min): 8.32 ± 0.37 % dose/g
- Heart biodistribution ([2]; 30 min): 3.49 ± 0.27 % dose/g
- Heart biodistribution ([2]; 1 hr): 3.81 ± 0.25 % dose/g
- Heart biodistribution ([2]; 2 hr): 3.59 ± 0.03 % dose/g
- Kidney biodistribution ([2]; 2 min): 13.02 ± 1.04 % dose/g
- Kidney biodistribution ([2]; 30 min): 4.54 ± 0.62 % dose/g
- Kidney biodistribution ([2]; 1 hr): 3.98 ± 0.24 % dose/g
- Kidney biodistribution ([2]; 2 hr): 3.18 ± 0.16 % dose/g
- Liver biodistribution ([2]; 2 min): 19.02 ± 1.06 % dose/g
- Liver biodistribution ([2]; 30 min): 7.98 ± 0.60 % dose/g
- Liver biodistribution ([2]; 1 hr): 6.35 ± 0.46 % dose/g
- Liver biodistribution ([2]; 2 hr): 5.05 ± 0.43 % dose/g
- Lung biodistribution ([2]; 2 min): 7.79 ± 0.34 % dose/g
- Lung biodistribution ([2]; 30 min): 3.91 ± 0.28 % dose/g
- Lung biodistribution ([2]; 1 hr): 3.84 ± 0.55 % dose/g
- Lung biodistribution ([2]; 2 hr): 3.63 ± 0.15 % dose/g
- Muscle biodistribution ([2]; 2 min): 0.82 ± 0.12 % dose/g
- Muscle biodistribution ([2]; 30 min): 2.83 ± 0.22 % dose/g
- Muscle biodistribution ([2]; 1 hr): 2.76 ± 0.17 % dose/g
- Muscle biodistribution ([2]; 2 hr): 2.36 ± 0.11 % dose/g
- Skin biodistribution ([2]; 2 min): 1.08 ± 0.22 % dose/g
- Skin biodistribution ([2]; 30 min): 3.14 ± 0.22 % dose/g
- Skin biodistribution ([2]; 1 hr): 3.15 ± 0.28 % dose/g
- Skin biodistribution ([2]; 2 hr): 2.62 ± 0.16 % dose/g
- Spleen biodistribution ([2]; 2 min): 6.92 ± 0.79 % dose/g
- Spleen biodistribution ([2]; 30 min): 3.93 ± 0.29 % dose/g
- Spleen biodistribution ([2]; 1 hr): 3.87 ± 0.61 % dose/g
- Spleen biodistribution ([2]; 2 hr): 3.32 ± 0.16 % dose/g

Compound: CN(C)c1ccc(C=Cc2nc3ccc(OCCF)cc3o2)cc1 [Compound 8a, 6-(2-fluoroethoxy)-[2-(4-dimethylaminophenyl)-vinyl]-benzooxazol]
- Ki [1]: 12 ± 0.5 nM

Compound: CNc1ccc(-c2nc3ccc(OCCOCCOCCOCCOCCOCC[18F])cc3s2)cc1 [[^18F]5c]
- Blood biodistribution ([2]; 2 min): 3.54 ± 0.12 % dose/g
- Blood biodistribution ([2]; 30 min): 2.52 ± 0.29 % dose/g
- Blood biodistribution ([2]; 1 hr): 2.46 ± 0.29 % dose/g
- Blood biodistribution ([2]; 2 hr): 1.54 ± 0.19 % dose/g
- Bone biodistribution ([2]; 2 min): 1.68 ± 0.60 % dose/g
- Bone biodistribution ([2]; 30 min): 1.20 ± 0.29 % dose/g
- Bone biodistribution ([2]; 1 hr): 1.68 ± 0.17 % dose/g
- Bone biodistribution ([2]; 2 hr): 2.31 ± 0.37 % dose/g
- Brain biodistribution ([2]; 2 min): 2.57 ± 0.12 % dose/g
- Brain biodistribution ([2]; 30 min): 1.69 ± 0.23 % dose/g
- Brain biodistribution ([2]; 1 hr): 1.80 ± 0.25 % dose/g
- Brain biodistribution ([2]; 2 hr): 1.29 ± 0.17 % dose/g
- Heart biodistribution ([2]; 2 min): 9.37 ± 0.18 % dose/g
- Heart biodistribution ([2]; 30 min): 2.11 ± 0.27 % dose/g
- Heart biodistribution ([2]; 1 hr): 1.82 ± 0.28 % dose/g
- Heart biodistribution ([2]; 2 hr): 1.19 ± 0.15 % dose/g
- Kidney biodistribution ([2]; 2 min): 23.00 ± 0.89 % dose/g
- Kidney biodistribution ([2]; 30 min): 5.01 ± 0.84 % dose/g
- Kidney biodistribution ([2]; 1 hr): 3.50 ± 0.86 % dose/g
- Kidney biodistribution ([2]; 2 hr): 1.27 ± 0.08 % dose/g
- Liver biodistribution ([2]; 2 min): 12.43 ± 1.11 % dose/g
- Liver biodistribution ([2]; 30 min): 3.94 ± 0.29 % dose/g
- Liver biodistribution ([2]; 1 hr): 2.86 ± 0.38 % dose/g
- Liver biodistribution ([2]; 2 hr): 1.67 ± 0.32 % dose/g
- Lung biodistribution ([2]; 2 min): 4.68 ± 0.27 % dose/g
- Lung biodistribution ([2]; 30 min): 2.41 ± 0.37 % dose/g
- Lung biodistribution ([2]; 1 hr): 2.08 ± 0.32 % dose/g
- Lung biodistribution ([2]; 2 hr): 1.24 ± 0.16 % dose/g
- Muscle biodistribution ([2]; 2 min): 1.60 ± 0.98 % dose/g
- Muscle biodistribution ([2]; 30 min): 1.87 ± 0.38 % dose/g
- Muscle biodistribution ([2]; 1 hr): 1.52 ± 0.24 % dose/g
- Muscle biodistribution ([2]; 2 hr): 0.93 ± 0.07 % dose/g
- Skin biodistribution ([2]; 2 min): 0.95 ± 0.12 % dose/g
- Skin biodistribution ([2]; 30 min): 2.14 ± 1.03 % dose/g
- Skin biodistribution ([2]; 1 hr): 1.42 ± 0.14 % dose/g
- Skin biodistribution ([2]; 2 hr): 0.91 ± 0.10 % dose/g
- Spleen biodistribution ([2]; 2 min): 4.74 ± 0.23 % dose/g
- Spleen biodistribution ([2]; 30 min): 2.05 ± 0.18 % dose/g
- Spleen biodistribution ([2]; 1 hr): 1.87 ± 0.26 % dose/g
- Spleen biodistribution ([2]; 2 hr): 1.13 ± 0.16 % dose/g

Compound: CN(C)c1ccc(-c2cn3cc(OCCOCCOCCOCCOCCOCCOCCOCCF)ccc3n2)cc1 [Compound 12e, 6-(2-fluoroethoxy-ethoxy-ethoxy-ethoxy-ethoxy-ethoxy-ethoxy-ethoxy)-2-(4-dimethylamino-) phenyl-imidazo[1,2-a]pyridine]
- Ki [1]: 387 ± 12 nM
